Results on 4 compounds are retold here after US20060052370A1, “Methods and compositions for treating nociceptive pain” (priority 2004, published 2006).

The structures appear in SMILES notation. “Also recorded” adds a separate entry of the source. Like-named read-outs stand apart in the source and are kept apart here.

The conditions of data set [1]: memantine and morphine combination.
The conditions of data set [2]: humans; cited from earlier work.
The conditions of data set [3]: humans; cited from earlier work. This is another data set of the same source.

For `CC12CC3CC(C)(C1)CC(N)(C3)C2` [Memantine, 1-amino-3,5-dimethyladamantane], the cum. fraction in data set [1] (Time 1) is 0.2; in data set [1] (Time 2), 0.3; in data set [1] (Time 4) it was 0.4; in data set [1] (Time 8), 0.5; in data set [1] (Time 12) it was 0.6; in data set [1] (Time 16), 0.7. In addition, the cum. fraction is listed as 0.8 in data set [1] (Time 20) and 0.9 in data set [1] (Time 24). Besides, in data set [2], the “Dose Dependent Tox” value was “Dose escalation; also recorded: hallucination”. Also, the Tmax in data set [3] is 3 h.

For `CC(N)C12CC3CC(CC(C3)C1)C2` (stereo not shown) [Rimantadine, 1-(1-aminoethyl)adamantane], in data set [3], the “Human PK (t½)” value is 25 h and the Tmax is 6 h.

Turning to `CN1CC[C@]23c4c5ccc(O)c4O[C@H]2[C@@H](O)C=C[C@H]3[C@H]1C5` [Morphine], the cum. fraction is given as 0.2 in data set [1] (Time 1); 0.3 in data set [1] (Time 2); 0.4 in data set [1] (Time 4); 0.5 in data set [1] (Time 8); 0.6 in data set [1] (Time 12); 0.7 in data set [1] (Time 16). Also, the results for the cum. fraction in data set [1] (Time 20) and in data set [1] (Time 24) were 0.8 and 0.9, respectively.

Regarding `NC12CC3CC(CC(C3)C1)C2` [Amantadine, 1-amino-adamantane], in data set [3], the “Human PK (t½)” value is 15 h and the Tmax is 3 h.

One may read the Tmax as the time at which the peak concentration occurs.
